Source: patent US11040981B2, “Pyrrolotriazine compounds and methods of inhibiting TAM kinases” (Syros Pharmaceuticals, Inc., priority 2017, dated 2021)

Assays:
[1] = biological target: T1, AXL (Homo sapiens, UniProt P30530); experiment: TR-FRET kinase activity assay, AXL; format: biochemical; conditions: ATP at Km, 60 minutes
T1 sequence (P30530 26-894): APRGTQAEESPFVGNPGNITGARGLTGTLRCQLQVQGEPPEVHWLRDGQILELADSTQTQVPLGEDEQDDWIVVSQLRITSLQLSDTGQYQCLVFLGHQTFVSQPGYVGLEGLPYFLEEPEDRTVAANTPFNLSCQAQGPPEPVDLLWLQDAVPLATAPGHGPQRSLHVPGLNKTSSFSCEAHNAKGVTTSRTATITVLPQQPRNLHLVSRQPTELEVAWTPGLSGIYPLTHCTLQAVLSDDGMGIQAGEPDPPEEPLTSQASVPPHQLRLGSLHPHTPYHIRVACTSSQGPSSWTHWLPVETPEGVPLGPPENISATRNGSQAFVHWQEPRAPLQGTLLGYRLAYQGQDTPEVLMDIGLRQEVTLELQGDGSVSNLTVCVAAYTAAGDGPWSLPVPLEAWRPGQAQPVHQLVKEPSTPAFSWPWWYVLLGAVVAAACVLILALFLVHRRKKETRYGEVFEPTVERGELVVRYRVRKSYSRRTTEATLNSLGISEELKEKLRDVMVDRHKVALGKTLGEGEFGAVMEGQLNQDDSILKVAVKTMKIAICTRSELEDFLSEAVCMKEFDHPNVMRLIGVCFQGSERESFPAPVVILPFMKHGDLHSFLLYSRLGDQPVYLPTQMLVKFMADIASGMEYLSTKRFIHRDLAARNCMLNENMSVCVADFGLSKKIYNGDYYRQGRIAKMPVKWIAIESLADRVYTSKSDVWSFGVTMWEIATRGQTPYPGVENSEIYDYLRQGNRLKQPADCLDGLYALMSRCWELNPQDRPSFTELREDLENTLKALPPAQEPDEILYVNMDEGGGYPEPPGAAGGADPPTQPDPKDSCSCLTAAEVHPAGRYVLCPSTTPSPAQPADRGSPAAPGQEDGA
Method in brief: (§1)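 Inhibition is measured as loss of phospho-peptide formation: kinase, fluorescent tyrosine peptide and compound are combined, ATP is added at Km, and the reaction proceeds 60 min at RT in pH 7.5 HEPES buffer. An EDTA stop and Eu-labelled phospho-specific antibody allow TR-FRET detection for IC50 fitting.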

[2] = biological target: T2, MERTK (Homo sapiens, UniProt Q12866); experiment: TR-FRET kinase activity assay, MERTK; format: biochemical
T2 sequence (Q12866 21-999): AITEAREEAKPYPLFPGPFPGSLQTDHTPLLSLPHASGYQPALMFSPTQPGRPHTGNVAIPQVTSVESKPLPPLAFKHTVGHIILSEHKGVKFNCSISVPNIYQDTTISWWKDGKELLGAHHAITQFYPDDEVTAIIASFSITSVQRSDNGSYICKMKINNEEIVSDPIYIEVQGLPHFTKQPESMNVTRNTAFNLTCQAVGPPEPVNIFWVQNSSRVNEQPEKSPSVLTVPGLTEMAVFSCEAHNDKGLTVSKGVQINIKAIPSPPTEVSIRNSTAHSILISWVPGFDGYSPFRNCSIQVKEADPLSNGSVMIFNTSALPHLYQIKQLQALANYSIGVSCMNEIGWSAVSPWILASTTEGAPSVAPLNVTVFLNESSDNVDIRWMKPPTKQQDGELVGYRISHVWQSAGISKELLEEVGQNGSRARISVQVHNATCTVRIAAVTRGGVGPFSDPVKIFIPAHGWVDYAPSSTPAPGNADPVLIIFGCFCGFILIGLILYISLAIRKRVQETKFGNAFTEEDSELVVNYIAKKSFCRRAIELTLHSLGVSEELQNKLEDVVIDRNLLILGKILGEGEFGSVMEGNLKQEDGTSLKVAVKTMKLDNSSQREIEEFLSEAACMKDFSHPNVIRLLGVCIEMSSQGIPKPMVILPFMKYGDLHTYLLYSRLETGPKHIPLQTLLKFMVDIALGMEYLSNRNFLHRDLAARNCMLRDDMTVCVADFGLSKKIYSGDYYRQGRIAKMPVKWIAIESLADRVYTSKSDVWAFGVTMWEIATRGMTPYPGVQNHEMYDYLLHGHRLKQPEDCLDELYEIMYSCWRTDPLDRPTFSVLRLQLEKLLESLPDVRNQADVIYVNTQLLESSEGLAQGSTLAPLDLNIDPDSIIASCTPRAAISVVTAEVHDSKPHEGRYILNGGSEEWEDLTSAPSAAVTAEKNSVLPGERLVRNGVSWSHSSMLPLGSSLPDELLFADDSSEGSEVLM
Method in brief: as §1

IC50 [1]: ≤ 0.1 µM | IC50 ([2]; TR-FRET activity assay, ATP at Km, 60 minutes, read-out: Mer IC50): ≤ 0.1 µM | FLT3/Mer ratio (FLT3 IC50/Mer IC50) ([2]; ratio calculated as FLT3 IC50/Mer IC50): +++ (“+++” represents a ratio of >100)
SMILES: COC[C@H](C)Nc1ncc2c(-c3conc3C)cc([C@H]3CC[C@H](O)CC3)n2n1 [Compound 508]
